Laboratory results: US20080058709A1, “METHOD AND APPARATUS THAT ASSOCIATE THE PARENTERAL INJECTION OF MEDICAL GRADE CARBON DIOXIDE (CO2) CONCOMITANTLY WITH THE APPLICATION OF INFRARED RADIATION FROM THERMAL AND/OR LIGHT SOURCES USING CONTROL BY MEANS OF CUTANEOUS AND/OR BODY THERMOMETRY” (priority 2006, published 2008)
“Also recorded” adds a separate entry of the source.

Experiments:
[1] = test system: patients with vascular and painful morbidities; assay: subcutaneous and intradermal CO2 injections in patients with vascular and painful morbidities (clinical observation); assay type: in vivo, human
From the text: It was perceived that the beneficial therapeutic effects in the areas of diffusion of CO2 after its injection subcutaneously and intradermally explored the initial “aesthetic” objectives.

[2] = test system: patients allergic to iodine contrast media; details: intra-arterial injections, even at large volumes; cited from earlier work
acupuncture points = assay: application of the invention in acupuncture (carboxyacupuncture); assay type: in vivo, human; details: CO2 infusion combined with infrared radiation controlled by thermometry
From the text: Technical variants in the mode of application of the product have also been developed by the proponent, such as: the use of limiting devices or tourniquets (G) at several points of the lower limbs in order to limit the expansion of the gas; distribution and homogenization of the CO2 in areas of interest by means of manual massages with oils, creams, or ointments; as well as the development of specific injection techniques into alternative parenteral routes (intramuscular, subfascial, intrasynovial, and other), as well as new methodologies of injection of the gas (carboxyacupuncture, sclerocarboxytherapy, and carboembolotherapy), all representing methods to optimize the effects and the use of the proposed apparatus (1).
(§1) Along these lines, the applicant has conjectured several clinical applications for using the method and controlled apparatuses of carbon dioxide infusion (A1) combined with the emission of infrared radiation (4) controlled by cutaneous/body thermometry (5) in an interface apparatus (A2) in vascular diseases, painful syndromes, lo treatment of osteoarticular tissues, and induction of focal reactive oxygen therapy. Following tests and observations, the applicant obtained the following results with the application of the present invention: […]

[3] = test system: Vascular Disease—Miscellaneous; assay: application of the invention in vascular disease, miscellaneous (healing, grafts, flaps); assay type: in vivo, human; details: CO2 infusion combined with infrared radiation controlled by thermometry
From the text: The present developed method includes two main stages:
Stage I) Application of the medical grade carbon dioxide—CO2—in vascular diseases and painful syndromes consists of the following stages:
d) Injections of the gas (2) via the parenteral route (3), standardized by the type of vasculopathy, painful syndrome, or induction of focal reactive oxygen therapy, adjusted by the type of treatment, and automatically controlled by the interfaces of the apparatus (A2);
Stage II) Application of infrared radiation consists of the following stages:
(§2) a.1) Following antisepsis and placement of limiting devices (G) (tourniquets), initiate the application of 02 to 03 minutes of infrared radiation in the area to be treated with thermal or light infrared radiation emitters (4), prior to initiating the injection of the CO2 gas (2);
as §1

[4] = test system: bone tissues and related connective tissues; assay: application of the invention in direct therapies on bone and related connective tissues; assay type: in vivo, human; details: CO2 infusion combined with infrared radiation controlled by thermometry
From the text: as §1

patients = assay: infrared radiation applied concomitantly with parenteral CO2 injection: pain during gas infusion; assay type: in vivo, human
Procedure: The intensity of radiation, however, could cause skin lesions; thus, during the infusions, he started to use as a safety parameter the assessment of skin temperature on the sites were irradiation was applied.
as §2
c.1) Monitoring with the infrared emitting source (4) the treated areas (AT) that are receiving the injection of CO2 gas (2), throughout the procedure; in the areas with skin lesions of ischemic etiology, more caution should be exercised when using this radiation.

[5] = test system: patients that had arterial circulatory disease with intermittent claudication; details: transcutaneous, bathing in waters rich in CO2; cited from earlier work

**Q.** With O=C=O [CO2, carbon dioxide] as the compound, how does the “vascular and painful symptoms following injections of the gas” value ([1]; CO2 injected subcutaneously and intradermally, patients treated for aesthetics) read?
**A.** showed improvement of vascular and painful symptoms

**Q.** And the “therapeutic effects after moving injection sites closer to the painful morbidities and the circulatory system” value ([1]; modified sites and forms of parenteral injection of CO2)?
**A.** clear intensification of the initially observed therapeutic effects

**Q.** And the adverse reactions [2]?
**A.** no significant adverse reactions even at large volumes

**Q.** What about the “results in Acupuncture (Carboxyacupuncture)” value (acupuncture points) of the same compound?
**A.** Greater local effect at systemic and cranial acupuncture points; also recorded: Greater action spectrum on less sensitive meridians; also recorded: Greater longevity of treatment

**Q.** What about the “results in Vascular Disease—Miscellaneous” value [3] of the same compound?
**A.** Accelerates the cicatricial process in lesions difficult to heal; also recorded: Accelerates the cicatricial process in areas of circulatory deficit; also recorded: Augments donor areas of free skin grafts; also recorded: Circulatory improvement in advancement or myocutaneous flaps

**Q.** What about the “results in direct therapies on bone tissues and related connective tissues” value [4] of the same compound?
**A.** Facilitates intraoperatory dissection of tendinous sheaths; also recorded: Minimizes post tenolysis adhesions

**Q.** And the “analgesia during the infusion of the gas” value (patients)?
**A.** produced an important analgesia

**Q.** And the walking distance [5]?
**A.** improving the walking distance
